From patent US7166581B1, “Treatment of chemotherapeutic agent and antiviral agent toxicity with acylated pyrimidine nucleosides” (Wellstat Therapeutics Corporation, priority 1987, dated 2007) come the findings set out here.

Series [1] deals with CD8F1 spontaneous mammary adenocarcinoma. The series can be described thus: TAU/uridine rescue with 5-FU alone in tumor-bearing mice (Example 5). Format: in vivo. As to the method: Sixty CD8F1 (BALB/C×[…]) female mice with first generation transplants of CD8F1 spontaneous mammary adenocarcinoma were treated with a weekly chemotherapy regimen which included a single dose of 5-FU (150 mg/kg) followed by various rescue strategies. The average tumor size was 157 mg at the start of the chemotherapy. The weekly chemotherapy course was completed three times.
In order to evaluate the various rescue therapies, the animals were divided into six groups of ten animals each as follows: […]

The subject of series [2] is hematopoietic system (AZT toxicity). Kind of series: Oral DAdC vs hematopoietic toxicity of i.p. AZT in DBA mice (Example 10). It counts as in vivo, female DBA mice. As for the experimental part:
AZT (100 mg/kg i.p.) was given three times daily at 9 a.m., 4 p.m., and at 10 p.m. to twenty-eight female DBA mice weighing approximately 20 grams each. Three times each day, at 9 a.m., 4 p.m., and 10 p.m., animals were treated with either water (control) or DAdC (411 mg/kg/treatment) by oral intubation. Treatment volume was 0.2 ml. One additional group of fourteen mice was not given AZT or any treatment (basal).
During the first few days of treatment a total of eight mice died from accidents occurring during oral administration of the water and DAdC. Therefore, the number of animals in the control group and the DAdC group were reduced on the days of sacrifice as follows: On day 6 there were four mice in the control group and five in the DAdC group; on day 13 there were seven in the control group and three in the DAdC group. The number of basal animals was seven at both time points.
On days six and thirteen blood (0.2–0.3 ml) was collected from mice in each group by retro-orbital bleeding into EDTA for subsequent differential blood cell counting, including reticulocytes. The animals were then sacrificed by cervical dislocation; their right femurs removed and the contents expelled for cell counting; and their spleens removed and weighed.

The test system of series [3] is hematopoietic system (Ara-C toxicity). Kind of series: DAdC or PdC vs hematopoietic toxicity of arabinosyl cytosine (Example 7). It counts as in vivo, Balb/C female mice. As to conditions: Ara-C 100 mg/kg i.p. daily for five days; DAdC 411 mg/kg p.o. or PdC 200 mg/kg i.p. twice daily. As for the experimental part:
Twenty-one Balb/C female mice weighing approximately 20 grams each received a daily intraperitoneal injection of Ara-C (100 mg/kg) for five days. These mice were divided into three treatment groups: oral administration of water (controls); oral administration of DAdC (411 mg/kg/treatment); and intraperitoneal administration of PdC (200 mg/kg/treatment in 0.2% Tween 80). Mice were treated with either water, DAdC, or PdC twice daily, at 9 a.m. and 6 p.m. Treatment volume in each case was 0.2 ml. An additional seven mice received no Ara-C and no treatment at all (basals).
On days seven and eleven following 5-FU administration, blood (0.2–0.3 ml) was collected from the seven mice in each group by retro-orbital bleeding into EDTA for subsequent differential blood cell counting. Mice were sacrificed by cervical dislocation, and their spleens removed and weighed.

Series [4] has as its system hematopoietic system (AZT toxicity). Kind of series: DAdC or THU vs hematopoietic damage by i.p. AZT in Balb/C mice (Example 11). It counts as in vivo, female Balb/C mice. The note with it: for Total neutrophil counts: day thirteen, AZT + DAdC 300 mg/kg p.o. or THU […] i.p. three times daily. As for the experimental part: AZT (100 mg/kg i.p.) was given three times daily at 9 a.m., 4 p.m., and 10 p.m. to twenty-one female Balb/C mice weighing approximately 20 grams each. […] Treatment volume was 0.2 ml. One group of seven mice was not given AZT or any treatment (basal).
On day thirteen blood (0.2–0.3 ml) was collected from mice in each group by retro-orbital bleeding-into EDTA for subsequent differential blood cell counting, including reticulocytes. The animals were then sacrificed by cervical dislocation; their right femurs removed and the contents expelled for cell counting; and their spleens removed and weighed.

The subject of series [5] is hematopoietic system (5-FU toxicity). The series can be described thus: Octanoyluridine vs hematological toxicity of 5-FU (Example 3A). It counts as in vivo, Balb/C female mice. As to conditions: seven days after 5-FU 75 mg/kg i.p.; Oct-U 100 mg/kg/treatment i.p. As for the experimental part: Fourteen Balb/C female mice weighing approximately 20 grams each were given a one-time 75 mg/kg i.p. injection of 5-FU at 11:00 a.m. on the initial day of the study. Half of these animals were subsequently treated with Oct-U (100 mg/kg/treatment, i.p.), while the other half (controls) were injected with physiological saline. Administration of Oct-U and saline occurred at 2:30, 4:30, and 7:00 p.m. on the initial day, and at 9:30 a.m., 12:00 noon, 2:30, and 5:00 p.m the following day. An additional group of seven mice (basals) received no 5-FU and no treatments.

The test system is the same in series [6]. Kind of series: Acyl derivatives of uridine i.p. vs bone marrow toxicity of 5-FU (Example 3). The note with it: for Spleen weights: day eleven after 5-FU, in mg; for HCT % / Lym / Neut / RBC / WBC: eleven days after 5-FU; for Spleen weight: day seven after 5-FU 150 mg/kg i.p., i.p. doses equimolar to uridine 300 mg/kg/treatment. It counts as in vivo, female Balb/C mice. As to the method: Ninety-eight female Balb/C mice weighing approximately 20 grams each were given a one-time 150 mg/kg injection (i.p.) of 5-FU at 1 p.m. on the initial day of the study. […] All of these doses are equimolar, and were administered in a volume of 0.4 ml by i.p. injection. The groups were treated at 3:30, 6:00, and 8:30 p.m. on the initial day with their respective agents. […] On days seven and eleven following 5-FU administration, blood (0.2–0.3 ml) was collected from seven mice in each group by retro-orbital bleeding into EDTA for subsequent differential blood cell counting. Mice were sacrificed by cervical dislocation; their right femurs removed and the contents expelled for cell counting; and their spleens removed and weighed.

Series [7] is described as follows: Toxicity of oral tegafur with TAU or uracil: body weight and blood cell counts (Example 13). Format: in vivo, mice. As to conditions: alone or with uracil or TAU 4:1 molar. As for the experimental part:
Triacetyluridine (TAU), like other acyl derivatives of uridine and cytidine of the invention, is converted to uridine and uracil during and after absorption into the bloodstream; when present at the same time as 5-FU, both uridine and uracil are capable of potentiating 5-FU cytotoxicity. Therefore, the cytotoxicity of oral tegafur+uracil versus tegafur+TAU was assessed. Blood cell counts were utilized as an index of cytotoxicity of 5-FU in the circulation (and by extension, of antitumor potency). Body weight loss was used as an index of gastrointestinal toxicity.
Three groups of mice received tegafur by oral intubation in a dose of 400 mg/kg per mouse. The initial body weight of mice in each group was 19.0±0.6 grams. One of these groups also received uracil in a molar ratio of 4:1 to the tegafur dose, and another group received TAU, also in a 4:1 molar ratio to tegafur. Body weights were monitored. Six days after tegafur administration, blood samples were taken for differential cell counts.
All drugs were administered orally in a single dose. Blood samples were taken for cell counts 6 days after drug administration; body weights were also recorded at this time.

Setting [8] is: AZT for six days + oral DAdC 411 mg/kg/treatment.
The mark [9] stands for this setting: AZT for thirteen days + oral DAdC 411 mg/kg/treatment.
[10] abbreviates: AZT for thirteen days + DAdC 300 mg/kg/treatment p.o.
Setting [11] is: 6 days after single oral tegafur 400 mg/kg.
Setting [12] is: day seven after 5-FU, equimolar i.p. doses.

For the molecule `O=c1[nH]cc(F)c(=O)[nH]1` [5-FU, 5-fluorouracil], the Mortality in series [1] (5-FU 150 mg/kg i.p. weekly x3 + vehicle (oil-water emulsion)) is 10/10; in series [1] (5-FU alone 150 mg/kg i.p. weekly x3, no rescue) it was 9/10.

For the molecule `CC(=O)OC[C@H]1O[C@@H](n2ccc(N)nc2=O)C[C@@H]1OC(C)=O` [DAdC, diacetyldeoxycytidine], in series [2] (setting [8]), the HCT is on record as 40.84 ± 1.35, the HGB is 13.96 ± .40, the RBC is given as 9.49 ± .32 and the Reticulocytes entry is on record as “.205 ± .075”. Further, in series [2] (setting [9]), the HCT was 41.53 ± 1.17, the HGB is on record as 13.97, the RBC is 9.16 ± .32 and the Reticulocytes result is “.814 ± .069”. In addition, in series [2] (day six, AZT 100 mg/kg i.p. three times daily + oral DAdC 411 mg/kg/treatment), the “reduction in bone marrow cellularity vs basals” value worked out at 2.5%. Besides, in series [2] (day thirteen, AZT + oral DAdC 411 mg/kg/treatment), the Platelet counts is given as 769±32. Besides, in series [3], the Neut is recorded as 0.42 ± .05 K/μl, the PLT was 728 ± 64 K/μl, the Spleen came to 87.8 ± 3.5 milligrams and the WBC is 5.00 ± .42 K/μl. Further, the RBC in series [4] (AZT 100 mg/kg i.p. three times daily for thirteen days + DAdC 300 mg/kg/treatment p.o.) is listed as 8.26 ± .13. In series [4] (setting [10]), the HCT came to 39.51 ± 0.61, the HGB is reported as 14.97 ± .15 and the Retic. entry is reported as “.059 ± .006”. For the same molecule, the Total neutrophil counts in series [4] is 1.39±0.14.

As to `CCCCCCCC(=O)OCC1OC(n2ccc(=O)[nH]c2=O)C(O)C1O` (stereo not shown) [Oct-U], in series [5], the Lym is 4.62 ± .29 thousands per microliter, the Marrow is 7.73 ± .68 thousands per microliter, the Neut is given as 1.19 ± .22 thousands per microliter and the PLT was 1243 ± 59 K/μl. In addition, in series [5], the RBC is recorded as 8.13 ± .14 M/μl, the Spleen weight was determined as 87.2 ± 3.7 mg and the WBC is given as 5.96 ± .47 thousands per microliter. Besides, the “overall effect at the dose used” value in series [6] (after 5-FU, OU 455 mg/kg/treatment i.p.) is “somewhat detrimental”.

Take `O=C1NC(O)CCN1[C@@H]1O[C@H](CO)[C@@H](O)[C@H]1O` (stereo partly shown) [THU, Tetrahydrouridine, reference compound]: in series [4], the Total neutrophil counts is listed as 1.16±0.15.

`O=c1[nH]c(=O)n(C2CCCO2)cc1F` (stereo not shown) [Tegafur]: in series [7] (setting [11]), the Body weight came to 18.2 ± 0.7 grams, the Neutrophils worked out at 0.40 ± 0.085 K/μl and the Platelets was determined as 956 ± 30 K/μl. For the same molecule, in series [7] (oral tegafur 400 mg/kg), the “loss of body weight compared to untreated (basal) animals” value was 7%.

Consider benzoyluridine [BU], for which, in series [6] (equimolar i.p. doses), the Spleen weights is given as 126.9±12.3, the HCT % came out at 36.87 ± 0.6 %, the Lym is recorded as 5.1 ± .4 K/μl and the Neut stood at 1.04 K/μl. Also, in series [6] (equimolar i.p. doses), the RBC is listed as 7.62 ± .1 M/μl and the WBC is on record as 6.20 ± .49 K/μl. Also, the Platelet counts in series [6] (setting [12]) is on record as 829.6 ×10^3 per microliter.

Regarding ethoxycarbonyluridine [ECU], in series [6], the Spleen weight was determined as 75.7 ± 5.0 mg. Also, in series [6] (setting [12]), the Lymphocyte counts was 7.19±0.32 ×10^3 per microliter and the “White blood cell counts” value is given as 7.26±0.31 ×10^3 per microliter. Further, in series [6] (equimolar i.p. doses), the HCT % turned out to be 37.54 ± 1.0 %, the Lym was 4.8 ± .5 K/μl, the Neut result is “.66 ± K/μl” and the RBC is on record as 7.65 ± .2 M/μl. Besides, the WBC in series [6] (equimolar i.p. doses) is given as 5.51 ± .64 K/μl.

For the molecule palmitoyldeoxycytidine [PdC], in series [3], the Neut is reported as 1.22 ± .27 K/μl, the PLT is on record as 327 ± 30 K/μl, the Spleen is 126.0 ± 5.3 milligrams and the WBC was 5.20 ± .35 K/μl.

For the molecule valeryluridine [VU], in series [6] (equimolar i.p. doses), the Spleen weights was 139.4±8.0, the HCT % amounted to 38.31 ± 0.8 %, the Lym is on record as 5.2 ± .4 K/μl and the Neut entry is reported as “.97 ± K/μl”. Also, in series [6] (equimolar i.p. doses), the RBC was 7.83 ± .1 M/μl and the WBC was 6.31 ± .42 K/μl. In series [6], this molecule registered a Spleen weight of 69.1 ± 1.7 mg. In series [6] (setting [12]), the Lymphocyte counts was 6.42±0.49 ×10^3 per microliter, the Platelet counts is given as 825.7±26.7 ×10^3 per microliter, the Total neutrophil counts is given as 0.141±0.027 ×10^3 per microliter and the “White blood cell counts” value was 6.57±0.49 ×10^3 per microliter.
